Data on 19 compounds can be found in patent publication US20240368106A1, “HYDROXY AND ALKOXY COUMARINS AS MODULATORS OF POLRMT” (Pretzel Therapeutics, Inc., priority 2021, published 2024).

The target of this test is POLRMT (Homo sapiens (Human), UniProt O00411). Description: homogeneous TR-FRET assay of mitochondrial transcription (inhibition of POLRMT). Format: biochemical. The following applies: 7.5 nM POLRMT, 15 nM TFB2M, 30 nM TFAM, 0.5 nM DNA template, 500 μM NTPs, 37° C., 60 minutes. Here is the method: The inhibitory activity of the compounds of the present invention against POLRMT were determined by assays based on Bergbrede, T., et al., “An adaptable high-throughput technology enabling the identification of specific transcription modulators,” SLAC Discov., 22, 378-386 (2017).
Chain of POLRMT (O00411 42-1230): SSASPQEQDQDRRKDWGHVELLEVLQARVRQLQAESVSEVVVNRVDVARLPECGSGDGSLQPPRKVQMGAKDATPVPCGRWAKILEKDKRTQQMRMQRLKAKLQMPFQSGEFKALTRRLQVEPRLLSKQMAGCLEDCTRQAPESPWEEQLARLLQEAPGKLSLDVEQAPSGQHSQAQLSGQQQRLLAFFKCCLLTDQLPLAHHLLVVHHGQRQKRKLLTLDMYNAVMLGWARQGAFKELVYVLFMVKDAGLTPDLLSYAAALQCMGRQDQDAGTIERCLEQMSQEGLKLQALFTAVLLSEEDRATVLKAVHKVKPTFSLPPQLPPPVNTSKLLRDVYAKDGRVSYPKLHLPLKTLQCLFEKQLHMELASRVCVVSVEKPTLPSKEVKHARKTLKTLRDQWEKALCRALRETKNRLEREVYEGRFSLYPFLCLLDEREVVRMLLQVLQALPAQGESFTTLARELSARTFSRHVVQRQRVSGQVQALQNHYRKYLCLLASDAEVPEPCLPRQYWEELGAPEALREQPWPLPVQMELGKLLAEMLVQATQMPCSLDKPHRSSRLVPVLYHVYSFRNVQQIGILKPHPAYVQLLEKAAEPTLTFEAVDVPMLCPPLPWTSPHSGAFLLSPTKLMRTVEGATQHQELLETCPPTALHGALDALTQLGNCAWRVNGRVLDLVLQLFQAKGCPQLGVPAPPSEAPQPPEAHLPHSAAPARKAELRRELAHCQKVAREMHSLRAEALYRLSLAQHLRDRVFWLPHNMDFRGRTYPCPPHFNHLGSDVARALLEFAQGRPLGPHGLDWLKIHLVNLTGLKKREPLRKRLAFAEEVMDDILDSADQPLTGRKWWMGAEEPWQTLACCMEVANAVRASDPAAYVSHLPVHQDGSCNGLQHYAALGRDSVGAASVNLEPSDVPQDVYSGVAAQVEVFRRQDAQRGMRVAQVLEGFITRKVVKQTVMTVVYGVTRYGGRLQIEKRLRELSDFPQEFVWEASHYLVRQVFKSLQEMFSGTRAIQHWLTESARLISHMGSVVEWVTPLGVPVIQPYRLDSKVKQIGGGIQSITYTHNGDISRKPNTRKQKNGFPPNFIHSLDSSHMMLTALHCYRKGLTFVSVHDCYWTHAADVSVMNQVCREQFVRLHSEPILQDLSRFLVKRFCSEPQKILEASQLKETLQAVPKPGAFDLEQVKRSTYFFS
The ability of some compounds of the present invention to inhibit POLRMT were determined in a homogeneous TR-FRET Assay using high-throughput screening in a 384-well plate format. This method is used to monitor the activity of mitochondrial transcription through measurement of its product, a 407 bp long RNA transcript. Detection of the product is facilitated by hybridization of two DNA-oligonucleotide probes to specific and adjacent sequences within the RNA product sequence. Upon annealing of the probes, two fluorophores are coupled directly to an acceptor nucleotide probe (ATT0647, 5′), or introduced via a coupled streptavidin with a biotinylated donor nucleotide probe (Europium cryptate) that is brought into sufficient proximity to serve as a fluorescence-donor-acceptor pair. Thus, a FRET signal at 665 nm is generated upon excitation at 340 nm.
Proteins used as transcription factors (POLRMT: NP_005026.3, TFAM: NP_003192.1, TFB2M: NP_071761.1) are diluted from their stocks to working concentrations of 1 μM, 20 μM and 4 μM respectively, in a dilution buffer containing 20 mM Tris-HCl (pH 8.0), 200 mM NaCl, 10% (v/v) glycerol, 1 mM Dithiothreitol (DTT), 0.5 mM EDTA.
DNA template is a pUC18 plasmid with the mitochondrial light strand promotor sequence (1-477) cloned between HindIII and BamHI sites. The DNA template is restriction linearized proximal to the promotor 3′-end (pUC-LSP). The reaction mixture (10 uL) containing 7.5 nM POLRMT, 15 nM of TFB2M, 30 nM of TFAM, 0.5 nM of DNA template and 500 μM nucleotide triphosphate mix (NTPs) in a reaction buffer (containing 10 mM Tris-HCl (pH 7.5), 10 mM MgCl2, 40 mM NaCl, 10 mM DTT, 0.005% (w/v) Tween-20, 160 units/ml Rnase inhibitor and 0.1 mg/mL BSA) are dispensed to compounds in microplates, using a Thermo Multidrop® dispenser, and incubated at 37° C. in a VWR INCU-Line incubator for 60 minutes after mixing. No nucleotide triphosphate mix is added to negative control samples. Microplates with compounds to be tested in the assay are prepared from 10 mM compound stocks in 100% DMSO, equal amounts of DMSO without any compound are added to positive control and negative control samples.
During the incubation, a mix of the detection reagents is prepared in a buffer such that the enzymatic reaction is terminated due to chelating of Mg-ions and increased ionic strength, containing 50 mM Tris-HCl (pH 7.5), 700 mM NaCl, 20 mM EDTA, and 0.010% (w/v) Tween-20. Europium-streptavidin is pre-incubated with a 200-fold molar excess of a random sequence oligonucleotide to block unspecific binding of oligo, for two hours at ambient temperature in the dark. Afterwards, the blocked Europium-streptavidin is kept on ice until use.
At the end of the enzymatic reaction time, 5 μL detection oligo mix in the detection buffer is added, and assay plates are mixed and kept at ambient temperature for one hour, protected from light. The concentration of the Acceptor nucleotide oligo (e.g., ATTO647N-5′-[…]-3′) and Donor nucleotide oligo (e.g., bio-5′-AACACATCTCT(-bio)GCCAAACCCCA-bio-3′) in each assay well is 1 nM, and 3 nM, respectively.
After incubation with oligo mix, 5 μL of pre-blocked Europium-streptavidin reagent is dispensed to each assay well, assay plates are again mixed and kept at ambient temperature for one hour, protected from light.
The generated signal is measured with BMG Pherastar microtiter plate reader with a TRF light unit, using excitation at 340 nm, an integration time of 200 μs, and a delay time of 100 μs, before detection at 620 nm and 665 nm. The ratio of donor- and acceptor-fluorescence is used as a measure of the generated transcript product (i.e. enzymatic activity).
A general note: TR-FRET usually uses a lanthanide donor and a delayed reading to cut background.
Turning to `CCCOc1ccc2c(-c3ccccc3C(F)(F)F)cc(=O)oc2c1` [Example 30, 7-propoxy-4-(2-(trifluoromethyl)phenyl)-2H-chromen-2-one], it took 1 µM to reach half-maximal inhibition (IC50).
Next, `CCCOc1ccc2c(-c3ccc(F)cc3Cl)cc(=O)oc2c1` [Example 31, 4-(2-chloro-4-fluorophenyl)-7-propoxy-2H-chromen-2-one]: 0.2 µM; `CCCOc1ccc2c(-c3cnccc3C(F)(F)F)cc(=O)oc2c1` [Example 32, 7-propoxy-4-(4-(trifluoromethyl)pyridin-3-yl)-2H-chromen-2-one]: 23 µM.
`CCCOc1ccc2c(-c3cscc3C)cc(=O)oc2c1` [Example 33, 4-(4-methylthiophen-3-yl)-7-propoxy-2H-chromen-2-one] yielded an IC50 of 0.2 µM.
As for `CCCOc1ccc2c(-c3ccc(O)cc3C)cc(=O)oc2c1` [Example 34, 4-(4-hydroxy-2-methylphenyl)-7-propoxy-2H-chromen-2-one], inhibition was half-maximal at 4 µM (IC50).
Turning to `CCCOc1ccc2c(-c3ccccc3OC)cc(=O)oc2c1` [Example 35, 4-(2-methoxyphenyl)-7-propoxy-2H-chromen-2-one], inhibition was half-maximal at 6 µM (IC50).
`CCCOc1ccc2c(-c3cccc4c3OCCO4)cc(=O)oc2c1` [Example 36, 4-(2,3-dihydrobenzo[b][1,4]dioxin-5-yl)-7-propoxy-2H-chromen-2-one] had an IC50 of 50 µM.
Consider `Cc1ccccc1-c1cc(=O)oc2cc(O)cc(C)c12` [Example 37, 7-hydroxy-5-methyl-4-(o-tolyl)-2H-chromen-2-one], for which the concentration for half-maximal inhibition (IC50) worked out at 2 µM.
For `COc1ccccc1-c1cc(=O)oc2cc(O)ccc12` [Example 50, 7-hydroxy-4-(2-methoxyphenyl)-2H-chromen-2-one], the IC50 amounted to 10 µM.
With `CCCOc1ccc2c(-c3csc(C)c3C)cc(=O)oc2c1` [Example 51, 4-(4,5-dimethylthiophen-3-yl)-7-propoxy-2H-chromen-2-one] the figure was 0.4 µM; with `CCCOc1ccc2c(-c3c(C)noc3C)cc(=O)oc2c1` [Example 52, 4-(3,5-dimethylisoxazol-4-yl)-7-propoxy-2H-chromen-2-one], 17 µM; with `CCCOc1ccc2c(-c3cccnc3C)cc(=O)oc2c1` [Example 53, 4-(2-methylpyridin-3-yl)-7-propoxy-2H-chromen-2-one], 0.8 µM.
With `CCCOc1ccc2c(-c3ccncc3C)cc(=O)oc2c1` [Example 54, 4-(3-methylpyridin-4-yl)-7-propoxy-2H-chromen-2-one] the figure was 3 µM; with `CCCOc1ccc2c(-c3cnc(Cl)cc3C)cc(=O)oc2c1` [Example 55, 4-(6-chloro-4-methylpyridin-3-yl)-7-propoxy-2H-chromen-2-one], 5 µM; with `CC(=O)N1CCC(Oc2ccc3c(-c4ccc(F)cc4Cl)cc(=O)oc3c2)CC1` [Example 56, 7-((1-acetylpiperidin-4-yl)oxy)-4-(2-chloro-4-fluorophenyl)-2H-chromen-2-one], 8 µM.
Next, `CC(=O)N1CCCC(Oc2ccc3c(-c4ccc(F)cc4Cl)cc(=O)oc3c2)C1` (stereo not shown) [Example 57, 7-((1-acetylpiperidin-3-yl)oxy)-4-(2-chloro-4-fluorophenyl)-2H-chromen-2-one]: 4 µM; `Cc1ccccc1-c1cc(=O)oc2cc(OC(C)C)cc(C)c12` [Example 58, 7-isopropoxy-5-methyl-4-(o-tolyl)-2H-chromen-2-one]: 0.4 µM.
As for `CC(=O)N1CC[C@H](Oc2ccc3c(-c4ccccc4C)cc(=O)oc3c2)C1` [Example 61, (S)-7-((1-acetylpyrrolidin-3-yl)oxy)-4-(o-tolyl)-2H-chromen-2-one], the concentration for half-maximal inhibition (IC50) was 28 µM.
Take `CC(=O)N1CC[C@@H](Oc2ccc3c(-c4ccccc4C)cc(=O)oc3c2)C1` [Example 62, (R)-7-((1-acetylpyrrolidin-3-yl)oxy)-4-(o-tolyl)-2H-chromen-2-one]: the IC50 was 19 µM.

The IC50 is the concentration that gives 50% inhibition. Higher therefore signals lower potency.
